Measurements as given in patent publication US20120225862A1, “HETEROARYL BENZAMIDES, COMPOSITIONS AND METHODS OF USE” (AUCKLAND UNIVSERVICES LIMITED, priority 2009, published 2012).

Assays:
NEK2 = target: T1, NEK2 (Homo sapiens, UniProt P51955); assay: In vitro kinase activity (Millipore KinaseProfiler): NEK2; type: biochemical; conditions: no head or unit printed
T1 construct: purchased Millipore (KinaseProfiler service)
Method: All cells were grown in DMEM+10% FCS. ACHN and ACHN shVHL were a kind gift from George V. Thomas (UCLA). HIF overexpressing clones were described previously. Transfection of RNA oligos were performed with DnarmaFECT Reagent 1 (Dharmcon), according to manufacturer's directions. ON-TARGETplus SMART pools against HIF-1β/ARNT were purchased from Dharmacon. Glut1 was detected with anti-GLUT1 antibody from NeoMarkers/LabVision/Fisher. Pyruvate/lactate levels and hexokinase activity were both measured by fluorometric assay (BioVision and Sigma-Aldrich, respectively). ATP levels were measured by bioluminescence assay (ATP Determination Kit from Molecular Probes/Invitrogen). In vitro kinase activities were performed by Millipore KinaseProfiler. Affi-Gel 10 (BioRad) activated affinity media was coupled to analogs to generate immobilized affinity linkers.
We next wanted to investigate the differential glucose uptake between RCCs with and without VHL treated with compound 47 that subsequently lead to the selective death of VHL-deficient cells. We first examined the message levels of the two main glucose transporters, GLUT1 and GLUT2 by quantitative real-time PCR. GLUT1 is an inducible, high-affinity glucose transporter, while GLUT2 is the glucose transporter responsible for basal glucose uptake. […] Cells deficient in VHL had very low levels of GLUT2 that could barely be detected (FIG. 3J). […]

LC3 = assay: Autophagy markers (vacuoles, LC3 processing); type: cell-based, human; conditions: RCC4 and RCC4/VHL, 1.25, 2.5 and 5 μM
Method: (A) Clonogenic survival of RCC4 and RCC4/VHL treated with […] (5 μM)(*p<0.05). All error bars represent the standard error of the mean. […] RCC4 and RCC4/VHL cells were treated with increasing concentrations of compound 47 (1.25, 2.5 and 5 μM), a negative control (DMSO) and a positive control (4-(pyridin-4-yl)-N-(m-tolyl)thiazol-2-amine). Cells were lysed and probed for LC3, a marker of autophagy, or α-tubulin (loading control). […] RCC4 and RCC4/VHL cells were treated with vehicle, increasing concentrations of compound 47, and camptothecin. Cells were stained with DAPI and nuclear condensation was examined by fluorescence microscopy. (D) RCC4 cells were treated with compound 47 (5 μM) for the indicated time and stained with Annexin V and propidium iodide and subjected to FACS analysis. […] RCC4 and RCC4/VHL cells were subjected to increasing concentrations of compound 47 (1.25, 2.5, and 5 μM), a negative control (DMSO), and a positive control (doxorubicin). Cells were lysed and subjected to Western blot with the indicated antibodies.
However, RCC cells without VHL undergo a necrotic cell death in response to compound 47 as measured by the ability of the cells to exclude trypan blue, an indicator of cell membrane integrity.

T1 sequence (P51955 whole entry, species assumed): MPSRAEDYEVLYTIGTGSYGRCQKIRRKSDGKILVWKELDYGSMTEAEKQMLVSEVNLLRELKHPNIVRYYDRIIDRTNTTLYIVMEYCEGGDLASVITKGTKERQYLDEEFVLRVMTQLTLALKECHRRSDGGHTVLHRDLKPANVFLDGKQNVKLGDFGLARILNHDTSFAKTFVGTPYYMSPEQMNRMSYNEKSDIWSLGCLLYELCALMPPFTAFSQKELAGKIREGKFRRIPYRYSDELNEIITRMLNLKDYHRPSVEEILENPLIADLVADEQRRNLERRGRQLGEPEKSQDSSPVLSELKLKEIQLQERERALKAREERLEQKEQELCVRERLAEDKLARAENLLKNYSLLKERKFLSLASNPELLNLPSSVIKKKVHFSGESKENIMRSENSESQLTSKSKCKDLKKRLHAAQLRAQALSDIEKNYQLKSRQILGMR

CC(C)(C)c1ccc(S(=O)(=O)NCc2ccc(C(=O)Nc3cccnc3)cc2)cc1 [Example 38, 4-((4-tert-Butylphenylsulfonamido)methyl)-N-(pyridin-3-yl)benzamide]
NEK2 kinase activity (NEK2): 103
induction of autophagy (vacuoles, LC3 processing) (LC3): did not induce any morphologic or biochemical features of autophagy
